Experimental data reported in PMC6756013, “B591, a novel specific pan-PI3K inhibitor, preferentially targets cancer stem cells” (Oncogene, 2019).

Legend:
[1] = test system: MDA-MB-231 cells; assay: Cell cycle analysis; type: cell-based, human; conditions: 24 h
Procedure: MDA-MB-231 cells were seeded in six-well plates at a density of 4×10^5 cells per well. The next day, cells were treated with B591 (0, 2.5, 5, 10 μM) for 24 h. Then the cells were trypsinized, centrifuged at 300 g for 5 minutes and fixed in 1 ml of 70 % cold ethanol. After incubation at -20℃ overnight, the cells were collected by centrifugation at 500 g for 5 min and pellets were resuspended in 500 μl PBS containing 300 μg/ml of RNase (Sigma, MO, USA). After incubation at 37 ℃ for 30 min, the pellets were stained with 100 μg/ml of propidium iodine (Sigma, MO, USA) for 20 min. Cell cycle distribution was determined by flow cytometry (FACScaliber, Becton Dickinson).

[2] = test system: ALDHhigh fractions in SUM-159PT cells; assay: ALDH activity assay (ALDEFLUOR); type: cell-based; conditions: 4 µM
Procedure: Cells were treated with B591 for 24 h, then the cell suspension was incubated with 20 μl of CD44-APC (#559942, BD Pharmingen, Franklin Lakes, NJ, USA) and 20 μl of CD24-PE (#555428, BD Pharmingen) antibodies for 30 min in dark at 4 ℃. Phenotype was detected by BD FACSCalibur, and data was analyzed with Flowjo. ALDH activity was analyzed with ALDEFLUOR Kit (STEMCELL Technologies, Vancouver, BC, Canada) according to the manufacture’s protocol.

[3] = test system: MDA-MB-231 and SUM-159PT monolayer and mammosphere cells; assay: Apoptosis of monolayer versus mammosphere cells (PE-Annexin V/7-AAD); type: cell-based, human; conditions: 48 h
Procedure: (§1) Cells were treated with indicated agents for 48 h, and cells were harvested and processed for apoptosis assay using the PE-Annexin V/7-AAD Apoptosis Detection Kit. d Representative flow cytometry plots of apoptosis inducing activity of B591 (10 μM) and paclitaxel (10 nM) on monolayer and mammosphere MDA-MB-231 cells. e B591 preferentially targeted CD44^high/CD24^low cells. Cells were treated with B591 or paclitaxel for 2 days. Following a 4-day recovery period, cells were co-stained with CD44 and CD24 antibodies and subjected to FACS analysis. Representative flow cytometry plots show the effect of B591 on CD44^high/CD24^low population in MDA-MB-231 cells in vitro. f B591 decreased mammosphere forming efficiency. Primary MDA-MB-231 mammospheres were treated with B591 or paclitaxel for 48 h. Results of the secondary mammosphere-formation assay are shown. Scale bar represents 40 μm. g B591 decreased the expression of CSC markers in MDA-MB-231 cells. Cells were treated with B591 or paclitaxel for 2 days. […] They label a gated population in plots with axes CD44 and CD24. / Panel E: DMSO is the vehicle control. Its printed value is included all the same.
Supplementary Fig. S10. B591 preferentially targets CSCs. […] Following a 4-day recovery period, the expression of CSC markers was analyzed with western blot analysis.

[4] = test system: MDA-MB-231 and SUM-159PT monolayer and mammosphere cells; assay: Proliferation inhibition of monolayer versus mammosphere cells; type: cell-based, human
Procedure: The proliferation inhibitory activities of B591 were compared between monolayer and mammosphere cells.
as §1

[5] = test system: eIF4E [nuc:cyto] ratio in SMMC7721, HepG2, MCF7, MDA-MB-231 and A549 cells; assay: Immunofluorescence and high content assay of eIF4E localization; type: cell-based; conditions: 5 h, five human cancer cell lines
Source text: The mRNA 5′ cap-binding protein eukaryotic initiation factor 4E (eIF4E) is a key regulator of cap-dependent translation initiation in the cytoplasm. Elevated level of eIF4E has been implicated in oncogenic transformation and tumorigenesis. The availability of eIF4E is tightly controlled through regulated interaction with 4E-BPs. eIF4E is predominantly cytoplasmic in mammalian cells, whereas serum-starvation and/or rapamycin-treatment: conditions that suppress mTOR signaling induces an accumulation of eIF4E within the nucleus. By using immunofluorescence assay, we assessed the effect of B591 on eIF4E subcellular localization of eIF4E. […] Further, five human cancer cell lines (SMMC7721, HepG2, MCF7, MDA-MB-231, and A549) were respectively treated with different concentrations of B591 for 5 h and eIF4E [nuc:cyto] ratios were determined by a high content assay using Thermo Scientific Cellomics ArrayScan VTI HCS.
Cells were seeded in 96-well plates (5,000 cells/well) and treated with DMSO or B591 for 5 h. Cells were then fixed with 4 % paraformaldehyde and followed by permeabilization with 0.1% triton X-100 and blocking in 2% bovine serum albumin in PBS. […] The subcellular location of eIF4E and the eIF4E nuclear–cytoplasmic intensity of each field per well was monitored and analyzed by using ArrayScan® VTI HCS Reader according to manufacturer’s instruction.

[6] = test system: RD cells; assay: Apoptosis assay (Annexin V-FITC); type: cell-based, human; conditions: 48 h
Procedure: Cells were seeded in six-well plates at a density of 2×10^5 cells per well and kept overnight at 37℃ humidified incubator with 5% CO2. The next day, cells were treated with B591 for 48 h. Cells were then collected and stained using Annexin V-FITC Apoptosis Detection Kit I (BD Pharmingen™, Franklin Lakes, NJ, USA) according to manufacturer’s instruction. In brief, cells were washed with cold PBS twice and with binding buffer once, about 1×10^5 cells were resuspended in 100 μl Annexin-V binding buffer, followed by incubation with FITC conjugated Annexin V and propidium iodide (PI) for 15 min at room temperature in the dark. The apoptosis assay was performed by using BD FACSCalibur flow cytometry.
Supplementary Fig. S8. B591 induces G0/G1 cell cycle arrest and apoptosis in tumor cells. […] The cells were harvested and analyzed for cell cycle profile. […] The cells were harvested and processed for apoptosis assay using the Annexin V-FITC Apoptosis Detection Kit. (D) Quantification of flow cytometry analysis of apoptosis. Results were presented as mean ± SD (n = 3). ^***p <0.001, difference versus DMSO-treated control group.

In the case of `Cc1cc2c(cc1C)[n+](Cc1ccccc1Br)cn2Cc1ccc2c(c1)CCO2.[Br-]` [B591, 3-(2-bromobenzyl)-1-((2,3-dihydrobenzofuran-5-yl)methyl) -5,6-dimethyl-1H-benzo[d]imidazol-3-ium bromide], the Cell cycle distribution [1] is reported as “effectively arrested cells in G0/G1 phase”, the “Reduction of ALDHhigh fractions” value [2] is reported as 90% and the “Apoptosis induction, mammosphere versus monolayer populations” value [3] is reported as “preferentially induced the apoptosis of mammosphere populations”. The “Proliferation inhibitory activity, mammosphere versus monolayer cells” value [4] was “more potent against mammosphere cells”, the “eIF4E [nuc:cyto] ratio” value [5] was “increased eIF4E [nuc:cyto] ratios in all the five cancer cells in a dose-dependent manner” and the Apoptosis induction [6] was “significant apoptosis inducing effect”.
